Results reported in patent US10131652B2, “Pyrimidinyloxy benzene derivatives as herbicides” (E. I. DU PONT DE NEMOURS AND COMPANY, priority 2014, dated 2018).
Read-outs that look alike come from different tables or passages of the source.

Key:
Assay in all cases: Test F pre-/postemergence plant response
Format in all cases: in vivo
[1] = test system: surinam grass (Brachiaria decumbens); details: Urochloa decumbens, pre-emergence, scale 0 to 100, read-out: Plant response rating, Surinam Grass
Description: (§1) Seeds of plant species selected from corn (Zea mays), soybean (Glycine max), velvetleaf (Abutilon theophrasti), lambsquarters (Chenopodium album), wild poinsettia (Euphorbia heterophylla), palmer pigweed (Amaranthus palmeri), waterhemp (common waterhemp, Amaranthus rudis), surinam grass (Brachiaria decumbens), large (Lg) crabgrass (Digitaria sanguinalis), Brazilian crabgrass (Digitaria horizontalis), fall panicum (Panicum dichotomiflorum), giant foxtail (Setaria faberii), green foxtail (Setaria viridis), goosegrass (Eleusine indica), johnsongrass (Sorghum halepense), ragweed (common ragweed, Ambrosia elatior), barnyardgrass (Echinochloa crus-galli), sandbur (southern sandbur, Cenchrus echinatus), arrowleaf sida (Sida rhombifolia), Italian ryegrass (Lolium multiflorum), dayflower (Virginia (VA) dayflower, Commelina virginica), field bindweed (Convolvulus arvensis), cocklebur (common cocklebur, Xanthium strumarium), momingglory (Ipomoea coccinea), nightshade (eastern black nightshade, Solanum ptycanthum), kochia (Kochia scoparia), yellow nutsedge (Cyperus esculentus), and hairy beggarticks (Bidens pilosa), were planted into a silt loam soil and treated preemergence with test chemicals formulated in a non-phytotoxic solvent mixture which included a surfactant.
(§2) At the same time, plants from these crop and weed species and also waterhemp_RES1, (ALS & Triazine resistant common waterhemp, Amaranthus rudis), and waterhemp_RES2, (ALS & HPPD resistant common waterhemp, Amaranthus rudis) were treated with postemergence applications of test chemicals formulated in the same manner. Plants ranged in height from 2 to 18 cm for postemergence treatments (1- to 4-leaf stage).
(§3) Treated plants and controls were maintained in a greenhouse for 14 to 21 days, after which time all species were compared to controls and visually evaluated. Plant response ratings, summarized in Table F, are based on a scale of 0 to 100 where 0 is no effect and 100 is complete control. A dash (-) response means no test result.

[2] = test system: ragweed (common ragweed, Ambrosia elatior); details: Ambrosia artemisiifolia, pre-emergence, scale 0 to 100, read-out: Plant response rating, Ragweed
Description: as §1, §2, §3

[3] = test system: Italian ryegrass (Lolium multiflorum); details: Lolium multiflorum, scale 0 to 100, read-out: Plant response rating, Ryegrass, Italian; for pest or weed control at 16 g/ha: 16 g ai/ha; for pest or weed control at 31 g/ha: 31 g ai/ha; for pest or weed control at 125 g/ha: 125 g ai/ha
Description: as §1, §2, §3

corn (Zea mays) = details: Zea mays, scale 0 to 100
Description: as §1, §2, §3

[4] = test system: nightshade (eastern black nightshade, Solanum ptycanthum); details: Solanum, pre-emergence, scale 0 to 100, read-out: Plant response rating, Nightshade
Description: as §1, §2, §3

[5] = test system: hairy beggarticks (Bidens pilosa); details: Bidens pilosa, scale 0 to 100, read-out: Plant response rating, Beggarticks
Description: as §1, §2, §3

[6] = test system: field bindweed (Convolvulus arvensis); details: Convolvulus arvensis, scale 0 to 100, read-out: Plant response rating, Field Bindweed
Description: as §1, §2, §3

[7] = test system: Brazilian crabgrass (Digitaria horizontalis); details: Digitaria horizontalis, scale 0 to 100, read-out: Plant response rating, Crabgrass, Brazil
Description: as §1, §2, §3

[8] = post-emergence, 8 g ai/ha Postemergence
[9] = pre-emergence, 8 g ai/ha Preemergence
[10] = post-emergence, 16 g ai/ha Postemergence
[11] = post-emergence, 31 g ai/ha Postemergence
[12] = post-emergence, 62 g ai/ha Postemergence
[13] = post-emergence, 125 g ai/ha Postemergence
[14] = pre-emergence, 16 g ai/ha Preemergence
[15] = pre-emergence, 31 g ai/ha Preemergence
[16] = pre-emergence, 62 g ai/ha Preemergence
[17] = pre-emergence, 125 g ai/ha Preemergence

Compound: FC(F)c1cc(-c2ccccc2Oc2ncc(Cl)cn2)on1 [Compound 53, 5-chloro-2-[2-[3-(difluoromethyl)-5-isoxazolyl]phenoxy]pyrimidine]
- pest or weed control at 8 g/ha ([1]; 8 g ai/ha Preemergence): 0%
- pest or weed control at 16 g/ha ([1]; 16 g ai/ha Preemergence): 0%
- pest or weed control at 31 g/ha ([1]; 31 g ai/ha Preemergence): 0%
- pest or weed control at 125 g/ha ([1]; 125 g ai/ha Preemergence): 0%
- pest or weed control at 62 g/ha ([1]; Preemergence): 0%
- pest or weed control at 8 g/ha ([2]; 8 g ai/ha Preemergence): 0%
- pest or weed control at 16 g/ha ([2]; 16 g ai/ha Preemergence): 0%
- pest or weed control at 31 g/ha ([2]; 31 g ai/ha Preemergence): 0%
- pest or weed control at 125 g/ha ([2]; 125 g ai/ha Preemergence): 40%
- pest or weed control at 62 g/ha ([2]; Preemergence): 30%
- pest or weed control at 8 g/ha [3, 8]: 0%
- pest or weed control at 16 g/ha ([3]; post-emergence, Postemergence): 0%
- pest or weed control at 31 g/ha ([3]; post-emergence, Postemergence): 0%
- pest or weed control at 62 g/ha ([3]; post-emergence, 62 g ai/ha, Postemergence): 5%
- pest or weed control at 125 g/ha ([3]; post-emergence, Postemergence): 0%
- pest or weed control at 8 g/ha [3, 9]: 0%
- pest or weed control at 16 g/ha ([3]; pre-emergence, Preemergence): 0%
- pest or weed control at 31 g/ha ([3]; pre-emergence, Preemergence): 0%
- pest or weed control at 125 g/ha ([3]; pre-emergence, Preemergence): 0%
- pest or weed control at 62 g/ha ([3]; pre-emergence, Preemergence): 0%
- Corn plant response rating (crop injury, 0 = no effect, 100 = complete kill) at 8 g/ha (corn (Zea mays); [8]): 0%
- Corn plant response rating (crop injury, 0 = no effect, 100 = complete kill) at 16 g/ha (corn (Zea mays); [10]): 0%
- Corn plant response rating (crop injury, 0 = no effect, 100 = complete kill) at 31 g/ha (corn (Zea mays); [11]): 0%
- Corn plant response rating (crop injury, 0 = no effect, 100 = complete kill) at 62 g/ha (corn (Zea mays); [12]): 0%
- Corn plant response rating (crop injury, 0 = no effect, 100 = complete kill) at 125 g/ha (corn (Zea mays); [13]): 10%
- Corn plant response rating (crop injury, 0 = no effect, 100 = complete kill) at 8 g/ha (corn (Zea mays); [9]): 0%
- Corn plant response rating (crop injury, 0 = no effect, 100 = complete kill) at 16 g/ha (corn (Zea mays); [14]): 0%
- Corn plant response rating (crop injury, 0 = no effect, 100 = complete kill) at 31 g/ha (corn (Zea mays); [15]): 0%
- Corn plant response rating (crop injury, 0 = no effect, 100 = complete kill) at 62 g/ha (corn (Zea mays); [16]): 0%
- Corn plant response rating (crop injury, 0 = no effect, 100 = complete kill) at 125 g/ha (corn (Zea mays); [17]): 15%
- pest or weed control at 16 g/ha ([4]; 16 g ai/ha Preemergence): 35%
- pest or weed control at 31 g/ha ([4]; 31 g ai/ha Preemergence): 90%
- pest or weed control at 125 g/ha ([4]; 125 g ai/ha Preemergence): 98%
- pest or weed control at 62 g/ha ([4]; Preemergence): 98%
- pest or weed control at 8 g/ha [5, 8]: 15%
- pest or weed control at 16 g/ha [5, 10]: 30%
- pest or weed control at 31 g/ha [5, 11]: 40%
- pest or weed control at 62 g/ha [5, 12]: 50%
- pest or weed control at 125 g/ha [5, 13]: 60%
- pest or weed control at 8 g/ha [5, 9]: 0%
- pest or weed control at 16 g/ha [5, 14]: 0%
- pest or weed control at 31 g/ha [5, 15]: 0%
- pest or weed control at 62 g/ha [5, 16]: 30%
- pest or weed control at 125 g/ha [5, 17]: 20%
- pest or weed control at 8 g/ha [6, 8]: 30%
- pest or weed control at 16 g/ha [6, 10]: 55%
- pest or weed control at 31 g/ha [6, 11]: 50%
- pest or weed control at 62 g/ha [6, 12]: 50%
- pest or weed control at 125 g/ha [6, 13]: 60%
- pest or weed control at 8 g/ha [6, 9]: 0%
- pest or weed control at 16 g/ha [6, 14]: 0%
- pest or weed control at 31 g/ha [6, 15]: 0%
- pest or weed control at 62 g/ha [6, 16]: 0%
- pest or weed control at 125 g/ha [6, 17]: 0%
- pest or weed control at 8 g/ha [7, 8]: 0%
- pest or weed control at 16 g/ha [7, 10]: 10%
- pest or weed control at 31 g/ha [7, 11]: 15%
- pest or weed control at 62 g/ha [7, 12]: 20%
- pest or weed control at 125 g/ha [7, 13]: 20%
- pest or weed control at 8 g/ha [7, 9]: 0%
- pest or weed control at 16 g/ha [7, 14]: 0%
- pest or weed control at 31 g/ha [7, 15]: 5%
